Values of other authors as cited in patent US20030212034A1, “Method of treatment of obesity and paralyzed muscle and ergogenic aids” (priority 2002, published 2003).

System: AMPK
Details: analogues of 5′-AMP; Hardie & Carling 1997; cited from earlier work

Compound	potency of AMPK activation in vitro
Nc1ncnc2c([C@@H]3O[C@H](COP(=O)(O)O)[C@@H](O)[C@H]3O)[nH]nc12 [Formycin A 5′-monophosphate]	less potently
NC(=O)c1ncn([C@@H]2O[C@H](COP(=O)(O)O)[C@@H](O)[C@H]2O)c1N [ZMP]	less potently
Nc1ncnc2c1ncn2[C@@H]1O[C@H](COP(N)(=O)O)[C@@H](O)[C@H]1O [adenosine 5′-phosphoramidate]	more potently
Nc1ncnc2c1ncn2[C@@H]1O[C@H](COP(O)(O)=S)[C@@H](O)[C@H]1O [adenosine-5′-thiomonophosphate]	more potently
